From PubChem BioAssay AID248 (DTP/NCI, 2004)
Where “and” joins values, the source holds several entries; their conditions need not be identical. Equal values may be shown once. Inconclusive results and toxic doses are left out. Cut-off read from the data, not from the text of the source: active = T/C of 150% or more; inactive = T/C below 125%.

Test system: L1210 leukemia ip in BDF1 mice, survival T/C
Test: NCI In Vivo Anticancer Drug Screen. Data for tumor model L1210 Leukemia (intraperitoneal) in B6D2F1 (BDF1) mice
Settings: endpoint: mean survival time, higher = longer survival
In short: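 In this screen, tumor-bearing mice given compound are compared to those given vehicle, and their survival values are reported as a treated-to-control quotient.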

[1] = dose: 100.0 mg/kg/injection, schedule: Q01DX009 (ip), vehicle: Klucel (hydroxypropylcellulose) (HPC)
[2] = dose: 100.0 mg/kg/injection, schedule: Q04DX003 (ip), vehicle: Klucel (hydroxypropylcellulose) (HPC)
[3] = dose: 200.0 mg/kg/injection, schedule: Q01DX009 (ip), vehicle: Klucel (hydroxypropylcellulose) (HPC)
[4] = dose: 200.0 mg/kg/injection, schedule: Q04DX003 (ip), vehicle: Klucel (hydroxypropylcellulose) (HPC)
[5] = dose: 400.0 mg/kg/injection, schedule: Q01DX009 (ip), vehicle: Klucel (hydroxypropylcellulose) (HPC)
[6] = dose: 400.0 mg/kg/injection, schedule: Q04DX003 (ip), vehicle: Klucel (hydroxypropylcellulose) (HPC)
[7] = dose: 100.0 mg/kg/injection, schedule: Q04DX003 (ip), vehicle: saline with Tween-80
[8] = dose: 200.0 mg/kg/injection, schedule: Q04DX003 (ip), vehicle: saline with Tween-80
[9] = dose: 400.0 mg/kg/injection, schedule: Q04DX003 (ip), vehicle: saline with Tween-80
[10] = dose: 100.0 mg/kg/injection, schedule: Q01DX009 (ip), vehicle: saline with Tween-80
[11] = dose: 200.0 mg/kg/injection, schedule: Q01DX009 (ip), vehicle: saline with Tween-80
[12] = dose: 100.0 mg/kg/injection, schedule: Q01DX009 (ip), vehicle: saline
[13] = dose: 200.0 mg/kg/injection, schedule: Q01DX009 (ip), vehicle: saline
[14] = dose: 400.0 mg/kg/injection, schedule: Q01DX009 (ip), vehicle: saline
[15] = dose: 100.0 mg/kg/injection, schedule: Q04DX003 (ip), vehicle: saline
[16] = dose: 200.0 mg/kg/injection, schedule: Q04DX003 (ip), vehicle: saline
[17] = dose: 100.0 mg/kg/injection, schedule: Q01DX001 (ip), vehicle: saline
[18] = dose: 200.0 mg/kg/injection, schedule: Q01DX001 (ip), vehicle: saline
[19] = dose: 400.0 mg/kg/injection, schedule: Q01DX001 (ip), vehicle: saline
[20] = dose: 50.0 mg/kg/injection, schedule: Q01DX001 (ip), vehicle: carboxymethylcellulose (CMC)
[21] = dose: 100.0 mg/kg/injection, schedule: Q01DX001 (ip), vehicle: carboxymethylcellulose (CMC)
[22] = dose: 200.0 mg/kg/injection, schedule: Q01DX001 (ip), vehicle: carboxymethylcellulose (CMC)
[23] = dose: 400.0 mg/kg/injection, schedule: Q01DX001 (ip), vehicle: carboxymethylcellulose (CMC)

Measured: T/C

N#CCCN(CCC#N)c1ccc(C=O)cc1
inactive: [1] 97 % of control | [2] 111 % of control | [3] 103 % of control | [4] 93 % of control | [5] 96 % of control | [6] 98 % of control

CC(NC(=O)Nc1ccccc1Cl)c1ccccc1 (configuration not stated)
inactive: [1] 105 % of control | [3] 105 % of control | [5] 102 % of control

O=C1C(Br)=CC(Br)(Br)C=C1Br
inactive: [7] 92 % of control | [8] 95 % of control | [9] 93 % of control

C/C(CC(O)(C(F)(F)Cl)C(F)(F)Cl)=N\O
inactive: [10] 92 % of control | [7] 107 % of control | [11] 97 % of control | [8] 93 % of control | [9] 93 % of control

O=C1C2(c3ccccc3)CCC1(c1ccccc1)C(c1ccccc1)=C2c1ccccc1
inactive: dose: 100.0 mg/kg/injection, schedule: Q01DX001 (ip), vehicle: saline with Tween-80 93 % of control

COCc1c(C)c(C)cc(C)c1C
inactive: [1] 96 % of control | [3] 96 % of control | [5] 91 % of control

CCOC(=O)CP(=O)(OC)c1ccccc1 (configuration not stated)
inactive: [12] 97 % of control | [13] 120 % of control | [14] 101 % of control

COc1ccc(N2C(=O)C3C4c5ccccc5C(C3C2=O)[n+]2ccccc24)cc1 (configuration not stated)
inactive: [15] 97 % of control | [16] 103 % of control

C=C(C)C1CC(=O)C2(C)OC2C1 (configuration not stated)
inactive: dose: 75.0 mg/kg/injection, schedule: Q01DX001 (ip), vehicle: other 102 % of control | dose: 150.0 mg/kg/injection, schedule: Q01DX001 (ip), vehicle: other 98 % of control | dose: 300.0 mg/kg/injection, schedule: Q01DX001 (ip), vehicle: other 94 % of control

CNC(=O)OC(C)CN(c1ccccc1)c1ccccc1 (configuration not stated)
inactive: dose: 50.0 mg/kg/injection, schedule: Q01DX001 (ip), vehicle: saline 98 % of control | [17] 104 % of control | [18] 98 % of control | [19] 102 % of control

CC[CH2][Sn]([Cl])([Cl])[CH2]CC.Oc1ccccc1C=NCCN=Cc1ccccc1O
inactive: dose: 2.5 mg/kg/injection, schedule: Q01DX009 (ip), vehicle: saline with Tween-80 101 % of control and 109 % of control | dose: 5.0 mg/kg/injection, schedule: Q01DX009 (ip), vehicle: saline with Tween-80 113 % of control | dose: 6.6 mg/kg/injection, schedule: Q01DX009 (ip), vehicle: saline with Tween-80 87 % of control

Cc1cc(N(CCCl)CCCl)ccc1C=NCCCCN=Cc1ccc(N(CCCl)CCCl)cc1C
inactive: [20] 104 % of control | [21] 106 % of control | [22] 101 % of control | [23] 101 % of control

c1ccc(OB(Oc2ccccc2)Oc2ccccc2)cc1
inactive: [17] 95 % of control | [18] 95 % of control | [19] 106 % of control

Cc1c2cc3c(c1O)C(=O)CC(O3)c1ccc(O)c(c1)-c1ccc(O)c(c1)C(=O)OCC1OC(O2)C(O)C(O)C1O (configuration not stated)
inactive: dose: 0.13 mg/kg/injection, schedule: Q01DX009 (ip), vehicle: Klucel (hydroxypropylcellulose) (HPC) 98 % of control | dose: 0.25 mg/kg/injection, schedule: Q01DX009 (ip), vehicle: Klucel (hydroxypropylcellulose) (HPC) 95 % of control | dose: 0.5 mg/kg/injection, schedule: Q01DX009 (ip), vehicle: Klucel (hydroxypropylcellulose) (HPC) 101 % of control | dose: 1.0 mg/kg/injection, schedule: Q01DX009 (ip), vehicle: Klucel (hydroxypropylcellulose) (HPC) 114 % of control

Cc1no[n+]([O-])c1C(=O)O
inactive: dose: 100.0 mg/kg/injection, schedule: Q04DX002 (ip), vehicle: Klucel (hydroxypropylcellulose) (HPC) 95 % of control | dose: 200.0 mg/kg/injection, schedule: Q04DX002 (ip), vehicle: Klucel (hydroxypropylcellulose) (HPC) 93 % of control

COC(=O)c1cc2c(cc1O)CCCC2
inactive: [20] 107 % of control | [21] 113 % of control | [22] 107 % of control | [23] 107 % of control

Nc1ccc(OCCCc2c(N)nc(N)nc2N)c(Cl)c1
inactive: [2] 96 % of control | [4] 94 % of control | [6] 97 % of control

Cc1cccc(N)[n+]1CCC(=O)O
inactive: dose: 75.0 mg/kg/injection, schedule: Q04DX003 (ip), vehicle: saline 101 % of control | dose: 150.0 mg/kg/injection, schedule: Q04DX003 (ip), vehicle: saline 94 % of control | dose: 300.0 mg/kg/injection, schedule: Q04DX003 (ip), vehicle: saline 95 % of control

COc1ccc(OC)c(NC(=O)Nc2ccc(N(C)C)cc2)c1
inactive: [2] 93 % of control | [4] 97 % of control | [6] 95 % of control

C/C(=N\N=C(/C)c1ccc(Cl)cc1)c1ccc(Cl)cc1
inactive: dose: 100.0 mg/kg/injection, schedule: Q01DX001 (ip), vehicle: Klucel (hydroxypropylcellulose) (HPC) 87 % of control | [1] 89 % of control and 95 % of control | [2] 89 % of control and 96 % of control | dose: 200.0 mg/kg/injection, schedule: Q01DX001 (ip), vehicle: Klucel (hydroxypropylcellulose) (HPC) 87 % of control | [3] 86 % of control and 95 % of control | [4] 89 % of control and 102 % of control | dose: 400.0 mg/kg/injection, schedule: Q01DX001 (ip), vehicle: Klucel (hydroxypropylcellulose) (HPC) 97 % of control | [5] 94 % of control | [6] 98 % of control and 93 % of control

C=CC[n+]1ccccc1C(c1ccccc1)c1ccccc1
inactive: dose: 6.25 mg/kg/injection, schedule: Q01DX009 (ip), vehicle: saline with Tween-80 108 % of control | dose: 12.5 mg/kg/injection, schedule: Q01DX009 (ip), vehicle: saline with Tween-80 97 % of control | dose: 12.5 mg/kg/injection, schedule: Q04DX003 (ip), vehicle: saline with Tween-80 95 % of control | dose: 25.0 mg/kg/injection, schedule: Q01DX009 (ip), vehicle: saline with Tween-80 92 % of control | dose: 25.0 mg/kg/injection, schedule: Q04DX003 (ip), vehicle: saline with Tween-80 103 % of control

CC(=O)Nc1ccc(C)c([N+](=O)[O-])c1
inactive: [12] 100 % of control | [15] 98 % of control | [13] 93 % of control | [16] 93 % of control | [14] 97 % of control | dose: 400.0 mg/kg/injection, schedule: Q04DX003 (ip), vehicle: saline 102 % of control

NC(=O)N(Cc1ccccc1)N=O
inactive: dose: 6.25 mg/kg/injection, schedule: Q01DX Z (ip), vehicle: carboxymethylcellulose (CMC) 101 % of control | dose: 12.5 mg/kg/injection, schedule: Q01DX Z (ip), vehicle: carboxymethylcellulose (CMC) 116 % of control | dose: 25.0 mg/kg/injection, schedule: Q01DX Z (ip), vehicle: carboxymethylcellulose (CMC) 104 % of control | dose: 50.0 mg/kg/injection, schedule: Q01DX Z (ip), vehicle: carboxymethylcellulose (CMC) 110 % of control | dose: 100.0 mg/kg/injection, schedule: Q01DX Z (ip), vehicle: carboxymethylcellulose (CMC) 116 % of control

COc1cc2ccc3c(c2cc1OC)CNCC3
inactive: dose: 50.0 mg/kg/injection, schedule: Q01DX009 (ip), vehicle: saline 104 % of control | [12] 104 % of control | [15] 116 % of control | [13] 88 % of control | [16] 102 % of control

Nc1ncnc2c1ncn2C1OC(C(=O)NCC(=O)O)C(O)C1O (configuration not stated)
inactive: dose: 100.0 mg/kg/injection, schedule: Q01DX005 (ip), vehicle: saline 113 % of control | dose: 200.0 mg/kg/injection, schedule: Q01DX005 (ip), vehicle: saline 100 % of control | dose: 400.0 mg/kg/injection, schedule: Q01DX005 (ip), vehicle: saline 101 % of control

NC(=O)c1ccccc1NC(=O)COc1ccc(Cl)cc1
inactive: [1] 95 % of control | [2] 97 % of control | [3] 92 % of control | [4] 98 % of control | [5] 97 % of control | [6] 106 % of control

c1cc(C2CCCCC2)ccc1-c1ccc(C2CCCCC2)cc1
inactive: [10] 94 % of control | [7] 98 % of control | [11] 94 % of control | [8] 101 % of control | dose: 400.0 mg/kg/injection, schedule: Q01DX009 (ip), vehicle: saline with Tween-80 97 % of control | [9] 90 % of control
